# Results: patent US9487529B2, “Macrocyclic compounds as ALK, FAK and JAK2 inhibitors” (Cephalon, Inc., priority 2011, dated 2016)
# Structures can show the parent of a compound that is named as a salt. Where two headings read alike, the source gives them in different places.
# Legend:
# [1] = cc_pd bond, CH3CN, 120.0 °C
# [2] = target: T1, baculovirus-expressed ALK (Homo sapiens, UniProt Q9UM73); assay: ALK Kinase Assay (ELISA/TRF); assay type: biochemical; conditions: 1 μM ATP (Km level)
# T1 construct: host or cells: baculovirus expression system
# Protocol: Briefly, each 96-well plate was coated with 100 μL/well of 10 μg/mL substrate (GST-PLC-γ) in Tris-buffered saline (TBS). […] The reaction was initiated by adding enzyme (30 ng/mL ALK) and was allowed to proceed at 37° C. for 15 minutes. Detection of the phosphorylated product was performed by adding 100 μL/well of Eu—N1 labeled PT66 antibody (Perkin Elmer #AD0041). […] Data analysis was performed using ActivityBase (IDBS, Guilford, UK). IC50 values were calculated by plotting percent inhibition versus log10 of the concentration of compound and fitting to the nonlinear regression sigmoidal dose-response (variable slope) equation in XLFit (IDBS, Guilford, UK).
# [3] = target: T2, human insulin receptor cytoplasmic domain (βIRCD) (Homo sapiens, UniProt P06213); assay: Insulin Receptor Kinase Assay (TRF); assay type: biochemical; conditions: 20 μM ATP, read-out: IR IC50
# T2 construct: human insulin receptor cytoplasmic domain (βIRCD); host or cells: baculovirus expression system
# Protocol: Example compounds were tested for their ability to inhibit the kinase activity of baculovirus-expressed human insulin receptor cytoplasmic domain (βIRCD) using the TRF assay as described above for ALK. Phosphorylation of the substrate, recombinant GST-PLC-γ, was detected with a europium-labeled anti-phosphotyrosine antibody and measured by TRF. Each 96-well plate (Greiner#655074) was coated with 100 μL/well of 20 μg/mL substrate solution in TBS. The IR assay mixture (total volume=100 μL/well) consisting of 20 mM HEPES (pH 7.2), 20 μM ATP, 5 mM MnCl2, 0.1% BSA, and test compound (diluted in DMSO; 2.5% DMSO final in assay) was added to the assay plates. Enzyme (20 ng/mL βIRCD) was added and the reaction was allowed to proceed at room temperature for 20 minutes. Detection of the phosphorylated product was performed by adding 100 μL/well of Eu—N1 labeled PY100 antibody (PerkinElmer#AD0160; diluted 1:10,000 in TBS-T containing 0.25% BSA). Incubation at 37° C. for 1 hour was followed by addition of 50 μL enhancement solution (Wallace#1244-105). Plates were agitated for 10 minutes and the fluorescence was measured using the PerkinElmer EnVision™ 2102 or 2104 multi-label plate reader.
# (§1) Data analysis was performed using ActivityBase (IDBS, Guilford, UK). IC50 values were calculated by plotting percent inhibition versus log10 of the concentration of compound and fitting to the nonlinear regression sigmoidal dose-response (variable slope) equation in XLFit (IDBS, Guilford, UK).
# [4] = target: T3, baculovirus-expressed JAK2 (Homo sapiens, UniProt O60674); assay: JAK2 Kinase Assay (TRF detection); assay type: biochemical; conditions: 0.2 μM ATP; average of two or more determinations; class symbols
# T3 construct: host or cells: baculovirus expression system
# Protocol: Compounds were tested for their ability to inhibit the kinase activity of baculovirus-expressed JAK2 using the TRF detection system. IC50 runs were conducted in 96-well Costar high binding plates (Corning Costar #3922, Corning, N.Y.). The plates were coated first with 100 μL/well of 10 μg/mL Neutravidin (Pierce #31000, Rockford, Ill.) in TBS at 37° C. for 2 hours, followed by 100 μL/well of 1 μg/mL 15-mer peptide substrate (biotinyl-amino-hexanoyl-EQEDEPEGDYFEWLE-amide, Infinity Biotech Research and Resource, Aston, Pa.) at 37° C. for another hour. The JAK2 assay mixture (total volume=100 μL/well) consisting of 20 mM HEPES, pH 7.2, 0.2 μM ATP, 1 mM MnCl2, 0.1% BSA, and test compound (diluted in DMSO; 2.5% DMSO final in assay) was then added to the assay plate. Enzyme (15 ng/ml JAK2) was added and the reaction was allowed to proceed at room temperature for 20 minutes. Detection of the phosphorylated product was performed by adding 100 μL/well of Eu—N1 labeled PY100 antibody (PerkinElmer Life Sciences #AD0041, Boston, Mass.). Incubation at the room temperature then proceeded for 1 hour, followed by addition of 100 μl enhancement solution (PerkinElmer Life Sciences #1244-105, Boston, Mass.). The plate was gently agitated and after thirty minutes, the fluorescence of the resulting solution was measured using the PerkinElmer EnVision™ 2102 (or 2104) multi-label plate reader.
# as §1
# recombinant human FAK = target: T4, recombinant human FAK (Homo sapiens, UniProt Q05397); assay: FAK Enzyme Assay (TRF detection); assay type: biochemical; conditions: 10 μM ATP
# T4 construct: purchased Invitrogen PV3832; host or cells: baculovirus expression system
# Protocol: Example compounds were tested for their ability to inhibit the kinase activity of baculovirus-expressed recombinant human FAK using the TRF detection system as described above for JAK2. IC50 runs were performed in 96-well Costar high binding plates (#3922). The plates were coated first with 100 μL/well of 10 μg/mL neutravidin in TBS at 37° C. for 2 h, followed by 100 μL/well of 1 μg/mL 15-mer peptide substrate (biotinyl-amino-hexanoyl-EQEDEPEGDYFEWLE-amide) at 37° C. for another hour. The FAK assay mixture (total volume=100 μL/well) consisting of 20 mM HEPES, pH 7.2, 10 μM ATP, 5 mM MgCl2, 0.5 mM DTT, 0.1% BSA, and test compound (diluted in DMSO; 2.5% DMSO final in assay) was then added to the assay plate. Enzyme (10 ng/mL FAK, Invitrogen #PV3832) was added and the reaction was allowed to proceed at room temperature for 30 minutes. Detection of the phosphorylated product was performed by adding 100 μL/well of Eu—N1 labeled PY100 antibody (diluted 1:75000 in antibody dilution buffer). Samples were incubated at room temperature for 1 hour, followed by addition of 100 μL enhancement solution. Plates were agitated for 10 minutes and fluorescence of the resulting solution measured using the PerkinElmer EnVision™ 2102 (or 2104) multi-label plate reader.
# as §1
# [5] = average of two or more determinations, class symbols
# T4 sequence (Q05397 whole entry): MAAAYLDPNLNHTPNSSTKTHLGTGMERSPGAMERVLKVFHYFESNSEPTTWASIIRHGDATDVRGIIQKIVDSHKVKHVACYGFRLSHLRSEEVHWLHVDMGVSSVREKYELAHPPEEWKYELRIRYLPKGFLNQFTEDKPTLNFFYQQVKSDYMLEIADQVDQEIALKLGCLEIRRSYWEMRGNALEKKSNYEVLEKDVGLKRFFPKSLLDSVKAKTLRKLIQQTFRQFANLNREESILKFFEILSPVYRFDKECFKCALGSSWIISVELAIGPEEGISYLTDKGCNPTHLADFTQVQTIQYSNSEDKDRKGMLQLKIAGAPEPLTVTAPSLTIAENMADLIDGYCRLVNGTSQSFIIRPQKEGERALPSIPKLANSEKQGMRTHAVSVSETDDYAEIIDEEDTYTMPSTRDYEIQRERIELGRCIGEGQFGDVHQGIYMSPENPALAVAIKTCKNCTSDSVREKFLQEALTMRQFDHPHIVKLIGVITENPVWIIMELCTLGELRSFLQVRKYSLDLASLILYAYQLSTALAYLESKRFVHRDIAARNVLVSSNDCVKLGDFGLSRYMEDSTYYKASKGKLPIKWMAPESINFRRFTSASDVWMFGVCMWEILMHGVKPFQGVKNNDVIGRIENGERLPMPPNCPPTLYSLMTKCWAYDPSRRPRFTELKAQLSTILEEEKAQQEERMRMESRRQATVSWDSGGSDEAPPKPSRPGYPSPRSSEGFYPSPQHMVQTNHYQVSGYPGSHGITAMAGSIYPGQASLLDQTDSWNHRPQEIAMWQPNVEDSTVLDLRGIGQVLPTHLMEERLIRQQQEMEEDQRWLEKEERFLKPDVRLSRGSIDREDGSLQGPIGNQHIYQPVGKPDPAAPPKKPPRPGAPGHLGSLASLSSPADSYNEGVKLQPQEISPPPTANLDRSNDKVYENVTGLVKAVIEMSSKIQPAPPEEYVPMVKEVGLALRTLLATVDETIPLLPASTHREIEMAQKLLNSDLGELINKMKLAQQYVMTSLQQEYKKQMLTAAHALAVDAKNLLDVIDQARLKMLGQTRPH
# T3 sequence (O60674 whole entry): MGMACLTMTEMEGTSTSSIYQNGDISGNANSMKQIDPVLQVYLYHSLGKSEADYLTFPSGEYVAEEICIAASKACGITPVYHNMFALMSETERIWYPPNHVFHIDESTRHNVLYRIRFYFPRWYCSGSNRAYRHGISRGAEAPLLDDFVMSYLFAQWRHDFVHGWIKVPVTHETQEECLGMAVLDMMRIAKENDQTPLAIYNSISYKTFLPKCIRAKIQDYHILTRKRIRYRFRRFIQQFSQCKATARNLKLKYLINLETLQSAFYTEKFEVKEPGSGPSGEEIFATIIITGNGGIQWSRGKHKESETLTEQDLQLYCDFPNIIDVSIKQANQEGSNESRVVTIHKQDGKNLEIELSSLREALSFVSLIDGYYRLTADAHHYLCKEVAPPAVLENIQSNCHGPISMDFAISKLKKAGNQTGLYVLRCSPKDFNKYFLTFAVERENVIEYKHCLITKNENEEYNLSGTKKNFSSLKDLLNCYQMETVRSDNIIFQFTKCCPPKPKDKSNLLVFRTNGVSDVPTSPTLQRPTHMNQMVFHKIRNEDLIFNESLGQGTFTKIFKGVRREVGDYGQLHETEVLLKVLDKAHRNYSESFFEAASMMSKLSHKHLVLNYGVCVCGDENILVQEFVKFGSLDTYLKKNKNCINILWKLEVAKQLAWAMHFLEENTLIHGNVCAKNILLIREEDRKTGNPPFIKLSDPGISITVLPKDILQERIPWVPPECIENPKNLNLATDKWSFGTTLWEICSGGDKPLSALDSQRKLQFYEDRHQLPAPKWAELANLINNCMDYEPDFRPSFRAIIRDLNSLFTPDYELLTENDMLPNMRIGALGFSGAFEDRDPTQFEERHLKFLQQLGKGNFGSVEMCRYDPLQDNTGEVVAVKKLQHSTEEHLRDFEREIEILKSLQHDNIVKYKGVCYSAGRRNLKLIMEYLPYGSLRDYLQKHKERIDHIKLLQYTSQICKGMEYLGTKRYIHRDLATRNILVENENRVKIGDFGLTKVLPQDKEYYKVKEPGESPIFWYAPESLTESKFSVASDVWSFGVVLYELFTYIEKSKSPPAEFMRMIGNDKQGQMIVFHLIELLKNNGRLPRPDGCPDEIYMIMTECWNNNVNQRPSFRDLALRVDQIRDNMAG
# T1 sequence (Q9UM73 19-1620): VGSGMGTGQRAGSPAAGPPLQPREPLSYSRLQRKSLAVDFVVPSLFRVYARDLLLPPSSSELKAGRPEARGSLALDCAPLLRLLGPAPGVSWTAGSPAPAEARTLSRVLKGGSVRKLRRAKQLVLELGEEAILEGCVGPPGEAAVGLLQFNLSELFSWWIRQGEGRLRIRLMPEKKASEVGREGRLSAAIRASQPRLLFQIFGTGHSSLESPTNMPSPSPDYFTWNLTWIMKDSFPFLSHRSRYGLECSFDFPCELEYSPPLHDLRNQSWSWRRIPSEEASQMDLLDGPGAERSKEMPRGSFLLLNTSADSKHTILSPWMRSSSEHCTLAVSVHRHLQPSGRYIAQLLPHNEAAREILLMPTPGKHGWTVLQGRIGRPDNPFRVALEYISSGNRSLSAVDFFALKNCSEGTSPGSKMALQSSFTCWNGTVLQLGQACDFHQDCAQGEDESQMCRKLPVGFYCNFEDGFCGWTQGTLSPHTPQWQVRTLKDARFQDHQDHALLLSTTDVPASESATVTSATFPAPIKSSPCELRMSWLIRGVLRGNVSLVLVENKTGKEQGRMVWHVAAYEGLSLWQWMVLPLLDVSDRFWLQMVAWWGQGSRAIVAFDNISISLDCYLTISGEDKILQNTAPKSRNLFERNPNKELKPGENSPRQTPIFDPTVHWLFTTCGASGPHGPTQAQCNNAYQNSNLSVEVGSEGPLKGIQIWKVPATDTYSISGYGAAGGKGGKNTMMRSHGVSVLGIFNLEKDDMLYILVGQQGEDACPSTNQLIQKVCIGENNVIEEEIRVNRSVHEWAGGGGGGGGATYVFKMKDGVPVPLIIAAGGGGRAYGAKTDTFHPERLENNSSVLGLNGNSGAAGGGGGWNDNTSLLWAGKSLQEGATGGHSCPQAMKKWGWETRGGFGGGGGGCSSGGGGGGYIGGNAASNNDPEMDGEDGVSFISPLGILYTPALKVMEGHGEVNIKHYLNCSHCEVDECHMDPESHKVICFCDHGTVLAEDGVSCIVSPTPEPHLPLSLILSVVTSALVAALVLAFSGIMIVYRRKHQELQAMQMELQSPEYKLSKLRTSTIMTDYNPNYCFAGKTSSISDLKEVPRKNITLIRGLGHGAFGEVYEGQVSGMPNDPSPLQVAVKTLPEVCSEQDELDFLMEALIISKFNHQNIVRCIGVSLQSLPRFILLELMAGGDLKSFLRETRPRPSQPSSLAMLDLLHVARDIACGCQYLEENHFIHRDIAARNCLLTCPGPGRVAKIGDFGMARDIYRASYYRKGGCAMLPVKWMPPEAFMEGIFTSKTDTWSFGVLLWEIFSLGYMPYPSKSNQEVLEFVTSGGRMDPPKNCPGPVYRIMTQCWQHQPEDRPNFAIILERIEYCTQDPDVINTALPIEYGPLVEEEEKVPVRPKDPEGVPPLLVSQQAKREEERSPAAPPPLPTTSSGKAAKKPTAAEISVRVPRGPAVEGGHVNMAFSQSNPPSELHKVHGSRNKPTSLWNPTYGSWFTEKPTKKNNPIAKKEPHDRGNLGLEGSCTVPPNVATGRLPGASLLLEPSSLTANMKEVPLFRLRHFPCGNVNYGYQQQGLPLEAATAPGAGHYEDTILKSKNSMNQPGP
# T2 sequence (P06213 980-1382 limits assumed): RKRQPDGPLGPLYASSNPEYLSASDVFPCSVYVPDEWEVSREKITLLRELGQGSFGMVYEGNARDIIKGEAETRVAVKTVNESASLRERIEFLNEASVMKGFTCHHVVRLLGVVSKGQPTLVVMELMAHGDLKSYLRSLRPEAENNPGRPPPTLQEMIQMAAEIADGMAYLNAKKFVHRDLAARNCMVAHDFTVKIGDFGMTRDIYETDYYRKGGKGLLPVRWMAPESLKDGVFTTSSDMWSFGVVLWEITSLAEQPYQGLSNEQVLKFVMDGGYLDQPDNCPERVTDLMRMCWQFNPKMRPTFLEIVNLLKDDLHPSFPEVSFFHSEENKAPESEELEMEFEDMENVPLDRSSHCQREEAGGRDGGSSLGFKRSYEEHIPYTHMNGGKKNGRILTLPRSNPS
Compound,"ring closure, yield of all isomers ([1]; from C=Cc1ccc(S(=O)(=O)C(C)C)c(Nc2nc(Nc3cc(Br)c(N4CCN(C)CC4)cc3OC)ncc2Cl)c1, Pd(OAc)2 / tri-o-tolylphosphine, Et3N, 31.3 mM, 0.25 h) [%]","IC50 [2, 5] [nM]","IC50 [3, 5] [nM]",IC50 [4] [nM],IC50 (recombinant human FAK; [5]) [nM],IC50 ([3]; given as numeric bound) [nM],"ring closure, yield of all isomers ([1]; from C=Cc1cc(Nc2ncc(Cl)c(Nc3cc(Br)ccc3N(C)S(C)(=O)=O)n2)ccc1N1CCN(C)CC1, Pd(OAc)2 / tri-o-tolylphosphine, Et3N, 65.0 mM, 2.75 h) [%]","ring closure, yield of all isomers ([1]; from C=Cc1cc(Nc2ncc(Cl)c(Nc3cc(Br)ccc3S(=O)(=O)C(C)C)n2)ccc1N1CCN(C)CC1, Pd(OAc)2 / P(o-tolyl)3 / Et3N, 65.0 mM, 2.0 h) [%]",IC50 ([2]; given as numeric bound) [nM],IC50 (recombinant human FAK; given as numeric bound) [nM]
COc1cc(N2CCN(C)CC2)c2cc1Nc1ncc(Cl)c(n1)Nc1cc(ccc1S(=O)(=O)C(C)C)/C=C\2,63,–,–,–,–,–,–,–,–,–
"COc1cc(C2CCN(C)CC2)c2cc1Nc1ncc(Cl)c(n1)Nc1cc(ccc1N(C)S(C)(=O)=O)CC2 [Example 8, 6-Chloro-10-(2-methanesulfonyl-methyl-amino)-17-(1-methyl-piperidin-4-yl)-19-methoxy-2,4,8,22-tetraazatetracyclo[14.3.1.1^3,7.1^9,13]docosa-1(20),3(22),4,6,9(21),10,12,16,18-nonaene Trifluoroacetate (1:1)]",–,< 10,101 to 1000,101 to 1000,< 10,–,–,–,–,–
"CN1CCN(c2ccc3cc2/C=C\c2ccc(N(C)S(C)(=O)=O)c(c2)Nc2nc(ncc2Cl)N3)CC1 [Example 9, (14Z)-6-Chloro-10-(2-methanesulfonyl-methyl-amino)-17-(4-methylpiperazin-1-yl)-2,4,8,22-tetraazatetracyclo[14.3.1.1^3,7.1^9,13]docosa-1(20),3(22),4,6,9(21),10,12,14,16,18-decaene Trifluoroacetate (1:1)]",–,10 to 100,–,< 10,< 10,> 2000,37,–,–,–
"CC(C)S(=O)(=O)c1ccc2cc1Nc1nc(ncc1Cl)Nc1ccc(N3CCN(C)CC3)c(c1)/C=C\2 [Example 11, (14Z)-6-Chloro-10-(propane-2-sulfonyl)-17-(4-methylpiperazin-1-yl)-2,4,8,22-tetraazatetracyclo[14.3.1.1^3,7.1^9,13]docosa-1(20),3(22),4,6,9(21),10,12,14,16,18-decaene Trifluoroacetate (1:1)]",–,10 to 100,1000 to 10000,< 10,10 to 100,–,–,32,–,–
"COc1ccc2cc1Nc1nc(ncc1Cl)Nc1ccc(N3CCOCC3)c(c1)CC2 [Example 21, 6-Chloro-10-methoxy-17-(morpholin-4-yl)-2,4,8,22-tetraazatetracyclo[14.3.1.1^3,7.1^9,13]docosa-1(20),3(22),4,6,9(21),10,12,16,18-nonaene Trifluoroacetate (1:1)]",–,> 10000,> 10000,< 10,> 10000,–,–,–,–,–
"Clc1cnc2nc1Nc1cccc(c1)/C=C\c1cc(ccc1OCCN1CCCC1)N2 [Example 22, (14Z)-6-Chloro-17-[2-(pyrrolidin-1-yl)ethoxy]-2,4,8,22-tetraazatetracyclo[14.3.1.1^3,7.1^9,13]docosa-1(20),3(22),4,6,9(21),10,12,14,16,18-decaene]",–,101 to 1000,1000 to 10000,< 10,101 to 1000,–,–,–,–,–
"Clc1cnc2nc1Nc1cccc(c1)/C=C\c1cc(ccc1N1CCOCC1)N2 [Example 24, (14Z)-6-Chloro-17-(morpholin-4-yl)-2,4,8,22-tetraazatetracyclo[14.3.1.1^3,7.1^9,13]docosa-1(20),3(22),4,6,9(21),10,12,14,16,18-decaene]",–,–,> 10000,< 10,> 10000,–,–,–,> 3000,–
"Clc1cnc2nc1Nc1cccc(c1)CCc1cc(ccc1N1CCOCC1)N2 [Example 25, 6-Chloro-17-(morpholin-4-yl)-2,4,8,22-tetraazatetracyclo[14.3.1.1^3,7.1^9,13]docosa-1(20),3(22),4,6,9(21),10,12,16,18-nonaene]",–,> 10000,> 10000,< 10,> 10000,–,–,–,–,–
"O[C@@H]1c2cccc(c2)Nc2nc(ncc2Cl)Nc2cccc(c2)[C@@H]1O [Example 26, (14R,15S)-6-chloro-2,4,8,22-tetraazatetracyclo[14.3.1.1^3,7.1^9,13]docosa-1(20),3(22),4,6,9(21),10,12,16,18-nonaene-14,15-diol]",–,1000 to 10000,–,< 10,–,> 3000,–,–,–,> 1000
"COc1cc(C2CCNCC2)c2cc1Nc1ncc(Cl)c(n1)Nc1cc(ccc1N(C)S(C)(=O)=O)CC2 [Example 28, 6-Chloro-10-(2-methanesulfonyl-methyl-amino)-17-(piperidin-4-yl)-19-methoxy-2,4,8,22-tetraazatetracyclo[14.3.1.1^3,7.1^9,13]docosa-1(20),3(22),4,6,9(21),10,12,16,18-nonaene Trifluoroacetate (1:1)]",–,< 10,101 to 1000,10 to 100,< 10,–,–,–,–,–
"COc1c2cc(c3c1CC[C@@H](N1CCOCC1)CC3)CCc1ccc(N(C)S(C)(=O)=O)c(c1)Nc1nc(ncc1Cl)N2 [Example 29, N-[(20S)-6-chloro-24-methoxy-20-(morpholin-4-yl)-2,4,8,27-tetraazapentacyclo[14.8.1.1^3,7.1^9,13.0^17,23]heptacosa-1(25),3(27),4,6,9(26),10,12,16,23-nonaen-10-yl]N-methylmethanesulfonamide]",–,10 to 100,–,101 to 1000,10 to 100,> 3000,–,–,–,–
"FC(F)(F)c1cnc2nc1Nc1cccc(c1)CCc1cccc(c1)N2 [Example 30, 6-Trifluoromethyl-2,4,8,22-tetraazatetracyclo[14.3.1.1^3,7.1^9,13]docosa-1(20),3(22),4,6,9(21),10,12,16,18-nonaene Trifluoroacetate (1:1)]",–,–,–,101 to 1000,1000 to 10000,–,–,–,> 3000,–
